Source: ChEMBL document CHEMBL1143234, “Uncovering false positives on a virtual screening search for cruzain inhibitors” (Bioorg Med Chem Lett, 2008)
Activity calls are given as the source filed them. No cut-off for these calls is given here.

Key:
[1] = target: Cruzipain (Trypanosoma cruzi) (UniProt P25779); assay: Inhibition of Trypanosoma cruzi cruzain
[2] = target: Cruzipain (Trypanosoma cruzi) (UniProt P25779); assay: Inhibition of Trypanosoma cruzi cruzain upto 7.22 mM
[3] = target: Cruzipain (Trypanosoma cruzi) (UniProt P25779); assay: Inhibition of Trypanosoma cruzi cruzain upto 0.67 mM
[4] = target: Cruzipain (Trypanosoma cruzi) (UniProt P25779); assay: Inhibition of Trypanosoma cruzi cruzain upto 38.71 mM

Cruzipain (Trypanosoma cruzi), sequence (P25779 123-467 limits assumed): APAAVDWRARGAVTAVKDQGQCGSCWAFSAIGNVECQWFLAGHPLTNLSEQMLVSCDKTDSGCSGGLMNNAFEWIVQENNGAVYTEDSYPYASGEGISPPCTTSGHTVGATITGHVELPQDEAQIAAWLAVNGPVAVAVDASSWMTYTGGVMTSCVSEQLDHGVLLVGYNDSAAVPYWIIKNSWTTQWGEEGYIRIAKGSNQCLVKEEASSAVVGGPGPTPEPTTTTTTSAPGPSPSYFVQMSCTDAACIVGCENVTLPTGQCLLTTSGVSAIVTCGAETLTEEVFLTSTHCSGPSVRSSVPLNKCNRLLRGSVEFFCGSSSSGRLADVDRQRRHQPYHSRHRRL

Row | Structure (SMILES) | Activity [1] | further results
1 | N#Cc1c(NC(=O)CC(NC(=O)c2ccccc2Cl)c2ccccc2)sc2c1CCCC2 (stereo unspecified) | 4.17 µM | 
2 | N#CC1(NC(=O)c2cc3ccccc3oc2=O)CCCCC1 |  | Activity [2]: inactive
3 | O=C(NC(Cc1c[nH]c2ccccc12)C(=O)N/N=C1\CCCN1)c1cccs1 (stereo unspecified) |  | Activity [3]: inactive
4 | N#Cc1ccccc1NC(=O)C(=O)Nc1ccccc1C#N | 17.3 µM | 
5 | N#Cc1ccsc1NC(=O)/C=C/c1cccc(Cl)c1 |  | Activity [4]: inactive
6 | O=C(/C=C/c1cccs1)NC(Cc1ccccc1)c1nc2ccccc2[nH]1 (stereo unspecified) | 44.9 µM | 
